Measured values: ChEMBL document CHEMBL2331426, “A formyl peptide substituted with a conformationally constrained phenylalanine residue evokes a selective immune response in human neutrophils” (Bioorg Med Chem, 2013)
Activity calls are given as the source filed them. The calls are words filed in the database; no cut-off is given here.

Tests used:
[1] = biological target: T1, fMet-Leu-Phe receptor 1/2 (Homo sapiens, UniProt P21462+P25090); experiment: Agonist activity at FPR1/FPR2 receptor in human neutrophils assessed as induction of superoxide radical generation by spectrophotometric analysis
T1 sequence (P21462 whole entry): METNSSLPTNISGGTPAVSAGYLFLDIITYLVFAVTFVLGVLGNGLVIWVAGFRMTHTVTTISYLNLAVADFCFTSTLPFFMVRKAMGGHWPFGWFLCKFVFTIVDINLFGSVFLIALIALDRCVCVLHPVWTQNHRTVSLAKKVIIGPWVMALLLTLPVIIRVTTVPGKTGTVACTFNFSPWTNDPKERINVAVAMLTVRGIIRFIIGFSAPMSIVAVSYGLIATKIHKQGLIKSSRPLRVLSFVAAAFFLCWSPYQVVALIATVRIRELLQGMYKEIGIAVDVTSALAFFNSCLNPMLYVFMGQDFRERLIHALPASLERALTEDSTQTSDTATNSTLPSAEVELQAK
T1 sequence (P25090 whole entry): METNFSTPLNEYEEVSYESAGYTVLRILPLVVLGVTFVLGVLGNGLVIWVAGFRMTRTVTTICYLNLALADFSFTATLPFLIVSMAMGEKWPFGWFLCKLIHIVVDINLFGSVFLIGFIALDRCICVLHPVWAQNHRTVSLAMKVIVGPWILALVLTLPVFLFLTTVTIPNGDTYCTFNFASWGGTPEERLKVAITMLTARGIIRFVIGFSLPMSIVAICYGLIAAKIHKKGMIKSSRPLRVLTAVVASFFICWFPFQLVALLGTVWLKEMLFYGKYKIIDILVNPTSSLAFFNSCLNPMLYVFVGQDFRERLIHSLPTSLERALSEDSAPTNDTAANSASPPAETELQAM

[2] = biological target: T1, fMet-Leu-Phe receptor 1/2; experiment: Agonist activity at FPR1/FPR2 receptor in human neutrophils assessed as induction of chemotaxis after 60 mins
[3] = biological target: T2, fMet-Leu-Phe receptor 1/2 (Homo sapiens) (UniProt P21462+P25090); experiment: Agonist activity at FPR1/FPR2 receptor in human neutrophils assessed as increase in intracellular calcium concentration at 0.1 uM by Fura-2-based spectrofluorophotometric analysis; assay type: functional, cell-based
[4] = biological target: T3, N-formyl peptide receptor 2 (Homo sapiens) (UniProt P25090); experiment: Binding affinity to FPR2 receptor in human neutrophils assessed as induction of intracellular calcium mobilization at 1 uM in presence of MMK-1; assay type: functional, cell-based
T3 sequence (whole entry): T1 sequence (P25090 whole entry)

[5] = biological target: T2, fMet-Leu-Phe receptor 1/2 (Homo sapiens); experiment: Agonist activity at FPR1/FPR2 receptor in human neutrophils assessed as stimulation of fMLP-OMe-induced superoxide radical generation at 0.1 uM incubated for 5 mins followed by fMLP-OMe induction by spectrophotometric analysis relative to control
[6] = biological target: T2, fMet-Leu-Phe receptor 1/2 (Homo sapiens); experiment: Agonist activity at FPR1/FPR2 receptor in human neutrophils assessed as induction of superoxide radical generation at 1 uM by spectrophotometric analysis
[7] = biological target: T2, fMet-Leu-Phe receptor 1/2 (Homo sapiens); experiment: Agonist activity at FPR1/FPR2 receptor in human neutrophils assessed as induction of chemotaxis after 60 mins relative to fMLP-OMe
[8] = biological target: T2, fMet-Leu-Phe receptor 1/2 (Homo sapiens); experiment: Agonist activity at FPR1/FPR2 receptor in human neutrophils assessed as increase in intracellular calcium concentration by spectrofluorophotometric analysis; assay type: functional, cell-based
[9] = biological target: T2, fMet-Leu-Phe receptor 1/2 (Homo sapiens); experiment: Agonist activity at FPR1/FPR2 receptor in human neutrophils assessed as induction of superoxide radical generation at 1 uM by […] spectrophotometric analysis relative to fMLP-OMe

EC50 [1] [nM]	EC50 [2] [nM]	Activity [3]	Activity [4]	Activity [5] [%]	Activity [6] [%]	Activity [7] [%]	Activity [8]	Activity [9] [%]	Compound
16	2.5	Active	–	–	–	–	–	–	COC(=O)[C@H](Cc1ccccc1)NC(=O)[C@H](CC(C)C)NC(=O)[C@H](CCSC)NC=O
–	14	Active	inactive	114	10	18	–	–	COC(=O)[C@]1(NC(=O)[C@H](CC(C)C)NC(=O)[C@H](CCSC)NC=O)C[C@@H]1c1ccccc1
–	–	–	–	–	–	–	Active	–	CSCC[C@H](NC(=O)[C@H](Cc1ccc(O)cc1)NC(=O)[C@H](CCCCN)NC(=O)[C@@H](N)Cc1c[nH]c2ccccc12)C(=O)N[C@H](C(=O)N[C@H](CCSC)C(=O)O)C(C)C
–	21	Active	Active	175	10	12	–	45	COC(=O)[C@]1(NC(=O)[C@H](CC(C)C)NC(=O)[C@H](CCSC)NC=O)C[C@H]1c1ccccc1
250	9.1	Active	Active	200	–	26	–	6.4	CSCC[C@H](NC=O)C(=O)N[C@@H](CC(C)C)C(=O)N[C@]1(C(=O)O)C[C@@H]1c1ccccc1
–	4.7	Active	inactive	114	10	53	–	–	COC(=O)[C@@]1(NC(=O)[C@H](CC(C)C)NC(=O)[C@H](CCSC)NC=O)C[C@H]1c1ccccc1
